The values that follow come from PubChem BioAssay (NCI).

Broadly, the TGI is the concentration at which net growth stops. Higher therefore signals less potent growth arrest.

Test systems include HCC-2998 colon; SNB-75 CNS; HCT-116 colon; HS 578T breast; BT-549 breast; NCI/ADR-RES ovarian; HT29 colon; MALME-3M melanoma; SN12C renal; MDA-N; SF-539 CNS; UO-31 renal.
Holding throughout (test): DTP human tumour cell line panel, 48 h

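How tested: cells in 96-well plates exposed to compound for 48 hours at five concentrations. TGI denotes the concentration required for complete inhibition of growth.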

In the case of `CCCCc1c2c(nc3c1CCC/C3=C\c1ccccc1)C(=O)C(CN(C)C)CC2` (configuration not stated), the TGI amounted to 54.7 µM in the assay with HCC-2998 colon; 27 µM in the assay with SNB-75 CNS; 32.6 µM in the assay on HCT-116 colon; 70.8 µM with HS 578T breast; 19.8 µM in the assay with BT-549 breast; 91.7 µM with NCI/ADR-RES ovarian. The total growth inhibition concentration (TGI) was found to be 28.9 µM with HT29 colon; 40.4 µM in the assay on MALME-3M melanoma; 43.1 µM in the assay on SN12C renal; 21.1 µM with MDA-N; 36.5 µM with SF-539 CNS; 33.7 µM in the assay with UO-31 renal.
`O=C1N=C(c2ccccc2)O/C1=C\c1ccccc1`: the TGI in the assay with HCC-2998 colon, with SNB-75 CNS, in the assay on HCT-116 colon, with HS 578T breast, in the assay with BT-549 breast and with NCI/ADR-RES ovarian was greater than 100 µM throughout. The concentration for total growth inhibition (TGI) in the assay with HT29 colon, in the assay on MALME-3M melanoma, with SN12C renal, with MDA-N, in the assay with SF-539 CNS and in the assay with UO-31 renal was greater than 100 µM each time.
Consider `CC(=O)CCC[C@@H](C)[C@@H]1O[C@H]([C@@]2(C)CCC(=O)O2)C[C@H]2C(CSc3ccccc3)C(=O)O[C@@H]12` (some centres not stated), for which the total growth inhibition concentration (TGI) in the assay on HCC-2998 colon is 29.2 µM; with SNB-75 CNS, greater than 59.4 µM; in the assay on HCT-116 colon, 31.2 µM; in the assay with HS 578T breast, greater than 41.6 µM; with BT-549 breast it was 27.5 µM; in the assay with NCI/ADR-RES ovarian it was 43.7 µM. Besides, the concentration for total growth inhibition (TGI) in the assay on HT29 colon is 40.1 µM; with MALME-3M melanoma it was greater than 42.5 µM; in the assay on SN12C renal it was 34.2 µM; with MDA-N, 42.2 µM; with SF-539 CNS it was 36.9 µM; in the assay on UO-31 renal, 31.1 µM.
Regarding `CCOC(=O)c1ccc(C(=O)/C(C#N)=C2\CCCN2)[nH]1`, the concentration for total growth inhibition (TGI) in the assay with HCC-2998 colon, with SNB-75 CNS, in the assay on HCT-116 colon, in the assay with HS 578T breast, with BT-549 breast and in the assay on NCI/ADR-RES ovarian was greater than 100 µM in each case. Moreover, the TGI in the assay with HT29 colon, with MALME-3M melanoma, in the assay with SN12C renal, with MDA-N, with SF-539 CNS and in the assay on UO-31 renal was greater than 100 µM in each case.
As to `O=C(Nc1nc(C23CC4CC(CC(C4)C2)C3)cs1)c1cc2cc(Br)cc(Br)c2oc1=O`, the total growth inhibition concentration (TGI) was greater than 100 µM in the assay on HCC-2998 colon; 85.5 µM in the assay on SNB-75 CNS; greater than 100 µM with HCT-116 colon; 79.7 µM in the assay with HS 578T breast; greater than 100 µM in the assay with BT-549 breast; greater than 100 µM in the assay on NCI/ADR-RES ovarian. Also, the concentration for total growth inhibition (TGI) with HT29 colon, with MALME-3M melanoma, with SN12C renal, with MDA-N, in the assay with SF-539 CNS and with UO-31 renal was greater than 100 µM in each case.
For `CN(C)CCNc1ccc2c(=O)n(CCN(C)C)c(=O)n3c4ccc(N)cc4c(=O)c1c23`, the concentration for total growth inhibition (TGI) with HCC-2998 colon was determined as 0.809 µM; with SNB-75 CNS, 0.442 µM; in the assay on HCT-116 colon it was 0.166 µM; in the assay on HS 578T breast, 1.3 µM; in the assay on BT-549 breast it was 1.87 µM; with NCI/ADR-RES ovarian, 2.28 µM. Moreover, the total growth inhibition concentration (TGI) in the assay on HT29 colon is 0.46 µM; with MALME-3M melanoma, 0.352 µM; in the assay with SN12C renal, 0.306 µM; in the assay on MDA-N, 0.219 µM; with SF-539 CNS, 0.482 µM; in the assay on UO-31 renal, 0.346 µM.
For `CCCCCc1c2nc(c(CCCCC)c3ccc([nH]3)c(CCCCC)c3ccc([nH]3)c(CCCCC)c3nc1C=C3)C=C2`, the total growth inhibition concentration (TGI) with HCC-2998 colon, in the assay with SNB-75 CNS, with HCT-116 colon, in the assay with HS 578T breast, in the assay on BT-549 breast and in the assay with NCI/ADR-RES ovarian was greater than 100 µM throughout. In addition, the total growth inhibition concentration (TGI) with HT29 colon, in the assay with MALME-3M melanoma, in the assay on SN12C renal, in the assay with MDA-N, in the assay on SF-539 CNS and with UO-31 renal was greater than 100 µM in each case.
`c1ccc(CCN(Cc2nc3ccccc3[nH]2)Cc2nc3ccccc3[nH]2)cc1`: the TGI in the assay on HCC-2998 colon worked out at 33.6 µM; with SNB-75 CNS, 36.7 µM; in the assay on HCT-116 colon it was 17 µM; in the assay with HS 578T breast, 43.4 µM; in the assay with BT-549 breast, 27.2 µM; in the assay on NCI/ADR-RES ovarian it was 18.1 µM. Further, the total growth inhibition concentration (TGI) in the assay on HT29 colon is greater than 63.5 µM; in the assay on MALME-3M melanoma, 45.7 µM; in the assay on SN12C renal it was 30.8 µM; in the assay with MDA-N, 36.3 µM; in the assay with SF-539 CNS it was 38.9 µM; in the assay on UO-31 renal, 26.2 µM.
Consider `O=C1/C(=C\c2cccc(Oc3ccccc3)c2)SC(c2ccccc2)N1c1ccc(Cl)cc1` (configuration not stated), for which the TGI in the assay on HCC-2998 colon, in the assay on SNB-75 CNS, in the assay on HCT-116 colon, with HS 578T breast, with BT-549 breast and with NCI/ADR-RES ovarian was greater than 100 µM each time. Also, the TGI is greater than 100 µM with HT29 colon; greater than 100 µM with MALME-3M melanoma; greater than 100 µM with SN12C renal; greater than 87.9 µM with MDA-N; 52.6 µM in the assay on SF-539 CNS; greater than 100 µM with UO-31 renal.
On to `CC(C)/C=N\n1c(N)c(C#N)c(C#N)c1C(C)C`, for which the TGI was 36.4 µM with HCC-2998 colon; 40.4 µM in the assay with SNB-75 CNS; greater than 100 µM in the assay on HCT-116 colon; 95.3 µM with HS 578T breast; greater than 100 µM in the assay with BT-549 breast; 66.3 µM with NCI/ADR-RES ovarian. Moreover, the total growth inhibition concentration (TGI) in the assay with HT29 colon is greater than 100 µM; with MALME-3M melanoma, 98.1 µM; with SN12C renal it was greater than 100 µM; in the assay with MDA-N, 76.6 µM; in the assay with SF-539 CNS, 52.5 µM; with UO-31 renal, 64.2 µM.
Turning to `Cc1ccc(S(=O)(=O)N2CCCCN(S(=O)(=O)c3ccc(C)cc3)Cc3ccccc3OCCOCCOc3c4cccc3Cc3cccc5c3OCCOCCOc3ccccc3CN(S(=O)(=O)c3ccc(C)cc3)CCCN(S(=O)(=O)c3ccc(C)cc3)Cc3ccccc3OCCOCCOc3c(cccc3C4)Cc3cccc(c3OCCOCCOc3ccccc3C2)C5)cc1`, the TGI in the assay with HCC-2998 colon, with SNB-75 CNS, in the assay with HCT-116 colon, with HS 578T breast, with BT-549 breast and in the assay on NCI/ADR-RES ovarian was greater than 100 µM each time. For the same compound, the concentration for total growth inhibition (TGI) with HT29 colon, in the assay with MALME-3M melanoma, in the assay on SN12C renal, in the assay with MDA-N, in the assay on SF-539 CNS and with UO-31 renal was greater than 100 µM in each case.
